# Target: T1, RIG-I (Homo sapiens, UniProt O95786)
# T1 construct: HEK293 cells overexpressing either the full length RIG-I; host or cells: HEK293; HCT116 also for the qRT-PCR validation
# T1 sequence (O95786 1-925): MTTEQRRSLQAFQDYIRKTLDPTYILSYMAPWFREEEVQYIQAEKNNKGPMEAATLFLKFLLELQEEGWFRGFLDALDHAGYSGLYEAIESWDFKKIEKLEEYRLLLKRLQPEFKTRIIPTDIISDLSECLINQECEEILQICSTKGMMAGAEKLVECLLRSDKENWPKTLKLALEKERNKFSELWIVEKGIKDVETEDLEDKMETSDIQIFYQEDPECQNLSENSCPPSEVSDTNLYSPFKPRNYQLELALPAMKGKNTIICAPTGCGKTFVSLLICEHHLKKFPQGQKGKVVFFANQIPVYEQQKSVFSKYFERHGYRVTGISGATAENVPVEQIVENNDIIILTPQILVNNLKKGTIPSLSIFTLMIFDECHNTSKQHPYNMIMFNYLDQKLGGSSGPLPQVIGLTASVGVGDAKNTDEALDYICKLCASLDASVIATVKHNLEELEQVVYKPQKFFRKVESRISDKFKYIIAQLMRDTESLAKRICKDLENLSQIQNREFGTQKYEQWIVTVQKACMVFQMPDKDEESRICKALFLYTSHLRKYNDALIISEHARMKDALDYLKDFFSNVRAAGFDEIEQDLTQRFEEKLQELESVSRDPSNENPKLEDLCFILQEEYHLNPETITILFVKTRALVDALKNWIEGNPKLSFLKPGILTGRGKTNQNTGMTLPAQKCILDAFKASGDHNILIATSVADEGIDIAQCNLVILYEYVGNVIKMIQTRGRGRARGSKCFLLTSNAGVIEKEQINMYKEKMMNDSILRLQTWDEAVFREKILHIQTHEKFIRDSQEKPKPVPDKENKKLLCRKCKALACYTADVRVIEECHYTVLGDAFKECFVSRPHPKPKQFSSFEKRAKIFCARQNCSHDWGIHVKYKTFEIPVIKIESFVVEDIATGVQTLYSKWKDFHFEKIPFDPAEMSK
# Assay: RNA sequencing of RNA bound to RIG-I (RIG-I pulldown) after IR
# Type: binding
# Method: Technically, identification of RNAs was performed as follows: […] Cambridge, Mass.). Twenty-four hours post-transfection, cells were either mock-irradiated or exposed to IR (6 Gy). […] Cell lysates were separated from cell debris by centrifugation at 12,000 rpm at 4° C. Protein concentration was measured by BCA kit. Anti-FLAG monoclonal antibody was added to the cell lysate at a 1:500 dilution, and incubated overnight at 4° C. Protein G sepharose beads were added to the lysates and incubated for at least 2 hours at 4° C. […] Proteinase K was added to the eluates and incubated at 50° C. for 45 minutes. Trizol reagent was then added to the solution, and RNA bound to RIG-I was purified following manufacturer's protocol. RNA quality was analyzed using an Agilent Bioanalyzer 2100 with Pico Series II cartridges. RNA yield was measured using the Qubit RNA Broad Range kit. For qRT-PCR validation experiments of RIG-I pulled down RNA, UV cross-linking (2 doses at 150 mJ/cm^2) was performed on HEK293 and HCT116 overexpressing RIG-I prior to cell lysis. The same protocol for pulldown and RNA purification experiments was performed as described above. We eluted total RNA and RNA bound to RIG-I from RIG-I over-expressing HEK293 cells 48 hours post IR (6 Gy). […] Libraries were sequenced on Illumina HiSeq2500 instrument to generate 50 bp pair-ended reads. Sequencing files in FastQ format were processed using AlienTrimmer (Criscuolo A and Brisse S, 2013) to remove adapter sequences and to trim low quality reads with Phred quality score <20. The preprocessed reads were aligned to the human reference genome (Ensembl GRCh38) using Spliced Transcripts Alignment to a Reference (STAR) software (Dobin et al., 2013). The featureCounts tool from Bioconductor package RSubread was used to summarize and quantify the abundances of genomic features of the mapped reads (Liao et al., 2013). Mapped reads were annotated using human GENCODE version 20 (Harrow et al., 2012) and were summarized to 35 gene/transcript and non-coding RNA biotypes annotated in GENCODE/Ensemble databases. RepEnrich program (Criscione et al., 2014) was used to identify and quantify the repetitive elements. The program uses Bowtie (Langmead et al., 2009) to align the reads to the human reference genome (Ensembl GRCh38) and human repetitive element pseudogenomes built upon […] annotation library hg38.fa.out.gz (available at […].org on the World Wide Web). The mapped reads were summarized by repetitive element subfamilies, families and classes (Tables 3, 4 and 5). […]
# [1] = Top 50 RIG-I binding RNAs, RepeatMasker annotations, RIG-I pulldown vs total RNA, HEK293, 48 h post IR (6 Gy)
substance,measurement,setting,value
"U2: snRNA, SEQ ID NO:21",log2FC,All mapped reads identified using RepeatMasker,5.983
same,Mean log2FC,"RepeatMasker annotations, mean of set 1 and set 2",3.948
same,log2FC (set 1),[1],5.983
same,log2FC (set 2),[1],1.914
